From publication PMC6145916, “Interaction of mitochondrial fission factor with dynamin related protein 1 governs physiological mitochondrial function in vivo” (Scientific Reports, 2018)
Where no end group is shown, it is not given here.

System: HD R6/2 model mice
Test: Survival of R6/2 Huntington's mice
Format: in vivo, mouse
Settings: 3 mg/Kg/day, continuous subcutaneous osmotic pump, 8 weeks, vs TAT; 15 mice per group
From the text: (a) Quantification of mitochondrial Drp1 content relative to ALDH2 (a mitochondrial matrix enzyme) in the mitochondrial fraction isolated from total brain lysate of wild-type mice (Western blot shown in Fig. S3B) (n = 4 mice). (b) ATP content in brain tissue of wild-type mice (n = 4 mice, 2 replicates). (c) Representative transmission electron microscopy images of the striatum from wild-type mice. […] The first principal component represents 42% of the variation. (f) Local linear embedding dimensionality reduction and visualization of all behaviors collected weekly from TAT- (black) or P259- (purple) treated WT and TAT- (white) treated R6/2 mice over the course of 8 weeks. […] All behavior and survival tests were conducted by an experienced observer who was blinded to the treatment groups. Data are mean ± s.e.
Five-week old R6/2 HD mice and their wild-type littermates (a total of 60 mice) were implanted subcutaneously with a 28-d Alzet osmotic pump with either P259-TAT or TAT control peptide (15 mice per group) to be delivered continuously at a rate of 3 mg/Kg/day, as previously described. All mice were implanted twice for a total of an 8-week treatment. 20 of the WT mice were implanted 3 times for a total of a 12-week treatment at 3 mg/Kg/day. […]
To quantify mitochondrial motility, the images at time 0 and 150 seconds w ere overlaid. […]

YGRKKRRQRRRGSGIIQLPEIVVV-NH2 (C-terminus assumed) [P259]
survival of HD R6/2 mice: further decline in survival
